# Counter-ions that a name gives are not always drawn.
# Experiments:
# [1] = test system: women diagnosed with mild-to-moderate Alzheimer's Disease; assay: ADAS-Cog test, 48-week double-blind placebo-controlled clinical trial; assay type: in vivo, human
# Experimental: During 2004-2005, a 48-week, double-blind placebo-controlled dose ranging study was conducted in 108 women diagnosed with mild-to-moderate Alzheimer's Disease. The study inclusion criteria included a requirement that each patient either (a) is taking a cholinesterase inhibitor, began taking it at least 90 days prior to the trial and is likely to continue taking it at the same dosage level throughout the trial; or (b) has never taken a cholinesterase inhibitor or has stopped taking at least 90 days prior to the trial and is likely to remain off cholinesterase inhibitors throughout the trial. The patients in the subgroup taking cholinesterase inhibitors were in turn divided into two groups for analysis purposes:
# Group 1 patients were administered an injectable 22.5 mg formulation of leuprolide acetate in combination with a stable dose of acetylcholinesterase inhibitors (AChEI). At the completion of the study, Group 1 included 24 subjects. Group 2 patients were administered a placebo injection (saline) in combination with a stable dose of AChEI. […]
# During the Phase II study, the administrations of leuprolide acetate and placebo occurred at weeks 0, 12, 24, 36, and 48 of the study, whereas doses of AChE inhibitors were taken as prescribed by a physician (determined as the proper beneficial level) to each specific patient before enrollment. […]
# [2] = test system: neuroblastoma cell lines (DAOY, SKNMC, CCF-SttG1); assay: Cell growth assay (WST-8, 96 well), neuroblastoma cell lines; assay type: cell-based; details: 10^-5 M (12.25 μg/ml) vs 0 M control, WST-8, optical density 450 nm, FIG. 5
# Experimental: (§1) For cell growth assays in a 96 well format, a specific number of cells were plated (about 1000 cells for each line). All cell lines were plated in their respective growth media (supplemented with either 1% regular fetal bovine serum, 1% charcoal/dextran-stripped fetal bovine serum or 0.25% Albumax™ (Invitrogen Corp., Grand Island N.Y.)) and allowed to settle for 24 hours. Leuprolide treatments were commenced […]. A 10 mM (12.25 mg/ml) solution of leuprolide acetate salt in phosphate buffered saline was prepared and diluted appropriately to obtain the desired final concentrations. Treatment concentrations were 0 M (control) and 10^−5 M (shown as 1.00E-5, 12.25 μg/ml). The number of cells in each group was measured by incubating cells with WST-8 (2-(2-methoxy-4-nitrophenyl)-3-(4-nitrophenyl)-5-(2,4-disulfophenyl)-2H-tetrazolium, monosodium salt) which produces a water soluble formazan dye that was detected by measuring optical density (at 450 nm) using a μQuant™ Universal Microplate Spectrophotometer (Bio-Tek® Instruments, Inc., Winooski, Vt.).
# [3] = test system: glioblastoma cell lines (LN229, U87, U118MG); assay: Cell growth assay (WST-8, 96 well), glioblastoma cell lines; assay type: cell-based; details: 10^-5 M (12.25 μg/ml) vs 0 M control, WST-8, optical density 450 nm, FIG. 5
# Experimental: as §1
# [4] = test system: testosterone suppression; details: Fowler et al. 2000; cited from earlier work
# [5] = test system: men with prostate cancer; details: daily injections for up to two years, Lupron Depot package insert; cited from earlier work
# [6] = test system: mild-to-moderate Alzheimer's disease patients; details: cited from earlier work
# [7] = in vivo; cited from earlier work
compound,measurement,setting,value
"CCNC(=O)[C@@H]1CCCN1C(=O)[C@H](CCCNC(=N)N)NC(=O)[C@H](CC(C)C)NC(=O)[C@@H](CC(C)C)NC(=O)[C@H](Cc1ccc(O)cc1)NC(=O)[C@H](CO)NC(=O)[C@H](Cc1c[nH]c2ccccc12)NC(=O)[C@H](Cc1c[nH]cn1)NC(=O)[C@@H]1CCC(=O)N1 [leuprolide acetate, 5-oxo-L-prolyl-L-histidyl-L-tryptophyl-L-seryl-L-tyrosyl-D-leucyl-L-leucyl-L-arginyl-N-ethyl-L-prolinamide acetate (salt)]",cognitive decline as percent of expected no-treatment decline,[1]; 100% decline = 5.6 ADAS-cog points in a year (literature placebo),84%
same,decline on ADAS-cog (mean change from baseline),"[1]; females, over 48 weeks, stable dose of AChEI, leuprolide acetate (Lupron Depot) 22.5 mg at 12-week intervals where given",4.68 points
same,cell growth of neuroblastoma cell lines,[2],inhibits cell growth
same,cell growth of neuroblastoma cell lines,[2]; listed as Leuprolide,very effective at slowing the growth
same,cell growth of glioblastoma cell lines,[3],inhibits cell growth
same,cell growth of glioblastoma cell lines,[3]; listed as Leuprolide,very effective at slowing the growth
same,serum concentration considered adequate for testosterone suppression,[4],less than 1 ng/ml
same,adverse effects of 20 mg per day versus 1 mg per day,[5],did not result in any adverse effects different from what was seen with the 1 mg dose
NCCCS(=O)(=O)O [tramiprosate],"overall 18 month decline on ADAS-cog, mild patients","[6]; ongoing trial, overall decline, mild patients",5.5 points
same,"overall 18 month decline on ADAS-cog, moderate patients","[6]; ongoing trial, overall decline, moderate patients",6.3 points
CC12CC3CC(C)(C1)CC(N)(C3)C2 [Memantine],dose excreted in the urine unchanged,[7],up to 82%
"COc1cc2c(cc1OC)C(=O)C(CC1CCN(Cc3ccccc3)CC1)C2 (stereo not drawn) [donepezil, Donepezil]",decline on ADAS-cog after 52 weeks of treatment,"[6]; Wilcock et al., one year trial comparing two AChEIs",3.43±0.8 points

# — patent publication US20110195898A1, “TREATMENT OF ALZHEIMER'S DISEASE AND MILD COGNITIVE IMPAIRMENT USING GNRH-I ANALOGS AND ONE OR MORE OF ACETYLCHOLINESTERASE INHIBITORS AND NMDA RECEPTOR ANTAGONISTS” (Voyager Pharmaceutical Corporation, priority 2004, published 2011)
